In patent US5607969A, “L-DOPA ethyl ester to treat Parkinson's disease” (priority 1995, dated 1997):
Entries after “also recorded” stand apart in the source; their conditions may differ. Where a name gives a salt, the structure may show the parent alone. Read-outs that look alike come from different tables or passages of the source. One block for each molecule: values may come before it.

What was measured:
[1] = literature, hydrochloride, cited from earlier work
[2] = Hygroscopicity, stability and crystallization of L-DOPA ethyl ester hydrochloride / free base made by conventional methods; format: physicochemical
Description: GB Patent No. 1,364,505 and corresponding U.S. Pat. No. 3,803,120, assigned to Hoffman-La Roche, describe the synthesis of L-DOPA ethyl ester hydrochloride salt and free base. This compound synthesized is used as an intermediate in the synthesis of other compounds and is not characterized in the patent specification. […] This material cannot be used for pharmaceutical compositions.

[3] = Bio-availability of L-DOPA ethyl ester in rats (subcutaneous), plasma L-DOPA profile; format: in vivo; details: s.c.
Protocol: Three subgroups of rats, each comprising four males and four females, were injected subcutaneously with 100 mg./kg. L-DOPA equivalents as L-DOPA ethyl ester. The L-DOPA ethyl ester was prepared as described in Example 1 and formulated as described in Example 4. After injection, blood samples were taken from the tail at the times shown below and analyzed for L-DOPA as described in T. Wikberg, J. of Pharmaceutical & Biomedical Analysis 9: 167-176 (1991). […] The L-DOPA plasma profile following injection is shown below: […]

[4] = system: Parkinson's Disease patients having response fluctuations; test: Clinical trial: administration of L-DOPA ethyl ester by injection (UPDRS on/off phases); format: in vivo, human
Protocol: A clinical trial was undertaken to assess the clinical efficacy of L-DOPA ethyl ester administered by sub-cutaneous injection.
The solution for injection L-DOPA ethyl ester 100mg, HCl to pH 4.0 and purified water as the vehicle.
Ten Parkinson's Disease patients having response fluctuations were hospitalized. These patients are typified in have "on" phases fluctuating with incapacitating "off" phases. Patients were administered s.c. or i.m. L-DOPA ethyl ester at escalating doses of 150-300mg in 2ml vehicle, twice daily, one hour after an oral capsule containing 25mg of carbidopa. "Off" and "on" UPDRS (Unified Parkinson's Disease Rating Scale) profiles, time to "on" phase and duration of "on" phase were measured. Blood samples were taken every 10 minutes post-L-DOPA ethyl ester administration for measurement of levodopa levels.

[5] = system: fluctuating Parkinsonian patients; test: First oral clinical trial in fluctuating Parkinsonian patients; format: in vivo, human; details: four occasions over two days, five patients
Protocol: This was the second in a series of oral clinical trials carried out with L-DOPA ethyl ester. The first clinical trial was carried out in five fluctuating Parkinsonian patients in the hospital setting where L-DOPA ethyl ester was administered on four occasions over a two day period.

[6] = Oral administration of L-DOPA ethyl ester to volunteers, plasma L-DOPA levels; format: in vivo, human; details: humans
Protocol: Human volunteers orally received 100 mg equivalents of L-DOPA as L-DOPA ethyl ester prepared according to Example 1 and formulated as described in Example 5. Plasma levels of L-DOPA following administration of representative patients are listed below in Table 5.

[7] = system: fluctuating Parkinsonian patients; test: Second oral clinical trial: safety, tolerability and preliminary efficacy of L-DOPA ethyl ester, sub-chronic; format: in vivo, human
Protocol: A clinical trial was carried out to determine the safety, tolerability, and preliminary efficacy of L-DOPA ethyl ester administered sub-chronically via the oral route in eight fluctuating Parkinsonian patients.
In the second clinical trial, all patients filled out daily diary cards for at least 10 days prior to study entry to ensure their reliability. Upon study entry they were instructed to continue filling out daily diary cards for the 10-day period during which they were taking L-DOPA ethyl ester.
Three out of the patients' normal daily doses with levodopa/carbidopa or levodopa/benserazide were switched to L-DOPA ethyl ester, each day for ten days. At the beginning and end of this ten-day period, a physical exam was performed and blood chemistry analyzed.

[8] = Stability of L-DOPA ethyl ester prepared according to Examples 1 and 2 (Table 2); format: physicochemical; design: key to COLOR: A: White with gray particles; B: Cream; C: WhiteYellow; D: Yellow; E: Dark Yellow; F: Gray; IMPURITIES: unit not given beside the values; details: for COLOR / IMPURITIES: listed as Example 1
Description: | STABILITY OF L-DOPA ESTER PREPARED

[9] = cited from earlier work
Parkinsonian patients = details: cited from earlier work
[10] = synthesized by the methods of GB 1,364,505 / U.S. 3,803,120
[11] = s.c./i.m. injection, dose dependence

hygroscopicity ([2]; applicant's own finding, hydrochloride): hygroscopic nature | crystallization [2, 10]: difficult to crystallize | stability [2, 10]: not stable
SMILES: CCOC(=O)[C@@H](N)Cc1ccc(O)c(O)c1 [L-DOPA ethyl ester hydrochloride salt, L-DOPA ethyl ester hydrochloride]
crystallization [1]: difficult to crystallize | hygroscopicity [1]: hygroscopic | crystallization ([1]; listed as ethyl ester): could not be crystallized as its hydrochloride salt | hygroscopicity ([1]; listed as ethyl ester): hygroscopic potential

conversion to L-DOPA [3]: fully converted to L-DOPA | kinetic profile ([3]; compared with L-DOPA): kinetic profile similar to L-DOPA | COLOR ([8]; 25° C. -N2, 1 m): A | IMPURITIES ([8]; 25° C. -N2, 1 m): 1.2 | COLOR ([8]; 25° C. -N2, 2 m): B | IMPURITIES ([8]; 25° C. -N2, 2 m): 0.7 | COLOR ([8]; 25° C. -N2, 4 m): C | IMPURITIES ([8]; 25° C. -N2, 4 m): 0.6 | COLOR ([8]; 40° C., 1 m): A | IMPURITIES ([8]; 40° C., 1 m): 2.4 | COLOR ([8]; 40° C., 2 m): B | IMPURITIES ([8]; 40° C., 2 m): 0.7 | ASSAY ([8]; 40° C., 4 m, 172800 min, listed as Example 1, 172800 min): 99.7% | COLOR ([8]; 40° C., 4 m): C | IMPURITIES ([8]; 40° C., 4 m): 0.5 | remaining at 720 h ([8]; storage, 25° C. -N2, 1 m): 98% | remaining at 1440 h ([8]; storage, 25° C. -N2, 2 m): 99.4% | remaining at 2880 h ([8]; storage, 25° C. -N2, 4 m): 99.5% | remaining at 720 h ([8]; storage, 40° C., 1 m): 98.9% | remaining at 1440 h ([8]; storage, 40° C., 2 m): 99.6%
SMILES: CCOC(=O)[C@@H](N)Cc1ccc(O)c(O)c1 [L-DOPA ethyl ester]
L-DOPA ethyl ester detected in plasma samples ([3]; 100 mg./kg. L-DOPA equivalents): No L-DOPA ethyl ester was detected in any of the plasma samples | MEAN TIME TO "ON" (RANGE) ([4]; 150 mg i.m., 2 injections, range (30-45)): 37.5 min | MEAN DURATION OF "ON" (RANGE) ([4]; 150 mg i.m., 2 injections, range (60-70)): 65 min | MEAN DURATION OF "ON" (RANGE) ([4]; 150 mg s.c., 6 injections, range (10-55)): 31.4 min | MEAN TIME TO "ON" (RANGE) ([4]; 150 mg s.c., 6 injections, range (25-90)): 54 min | MEAN TIME TO "ON" (RANGE) ([4]; 200 mg i.m., 5 injections, range (20-40)): 29.2 min | MEAN DURATION OF "ON" (RANGE) ([4]; 200 mg i.m., 5 injections, range (28-175)): 104.5 min | MEAN TIME TO "ON" (RANGE) ([4]; 200 mg s.c., 19 injections, range (10-120)): 38.6 min | MEAN DURATION OF "ON" (RANGE) ([4]; 200 mg s.c., 19 injections, range (10-235)): 126.9 min | MEAN TIME TO "ON" (RANGE) ([4]; 250 mg i.m., 5 injections, range (10-35)): 27.5 min | MEAN DURATION OF "ON" (RANGE) ([4]; 250 mg i.m., 5 injections, range (75-170)): 133.3 min | MEAN TIME TO "ON" (RANGE) ([4]; 250 mg s.c., 8 injections, range (20-40)): 27.1 min | MEAN DURATION OF "ON" (RANGE) ([4]; 250 mg s.c., 8 injections, range (60-210)): 155 min | MEAN TIME TO "ON" (RANGE) ([4]; 300 mg i.m., 7 injections, range (5-35)): 18.3 min | MEAN DURATION OF "ON" (RANGE) ([4]; 300 mg i.m., 7 injections, range (135-265)): 196.7 min | MEAN TIME TO "ON" (RANGE) ([4]; 300 mg s.c., 6 injections, range (5-37)): 22.8 min | MEAN DURATION OF "ON" (RANGE) ([4]; 300 mg s.c., 6 injections, range (80-315)): 193 min | patients turned to an "on" phase ([4]; s.c. LDEE injection): All patients were turned to an "on" phase | local or general side effects ([4]; s.c./i.m. injection): No local or general side effects were observed | plasma levodopa elevations ([4]; s.c./i.m. injection): rapid and sustained plasma levodopa elevations | duration of "on" phases [4, 11]: increased in a dose-dependant manner | latency of onset of "on" phases [4, 11]: decreased | adverse reactions [5]: No adverse reactions were recorded in any of the patients | conversion of L-DOPA ethyl ester to L-DOPA [6]: rapid conversion of L-DOPA ethyl ester to L-DOPA in humans | serum chemistry ([7]; following ten-day treatment): no abnormalities or changes for any patient | duration of the anti-Parkinsonian effect ([7]; ten days): marked beneficial effect | latency to initiation of drug action ([7]; ten days): marked beneficial effect | variability of the response of the patient to the drug's effect ([7]; ten days): significant decrease | safety and tolerability ([7]; ten days, three times per day): well tolerated by all individuals in the trial; also recorded: safe, well tolerated | unpredictability of drug response ([7]; ten days, three times per day, potential advantage): reducing the unpredictability of drug response | patient complaints / adverse reaction ([7]; ten-day treatment, eight patients): no patient complaints nor any reported adverse reaction

SMILES: N[C@@H](Cc1ccc(O)c(O)c1)C(=O)O [L-DOPA]
mean duration of "on" phase ([4]; levodopa, prior to administration of LDEE): approximately 90 minutes | mean latency to an "on" phase ([4]; post-administration of levodopa, prior to administration of LDEE): 45 to 75 min | solubility [9]: very poor solubility | initial period of satisfactory, smooth and stable clinical benefit (Parkinsonian patients; L-DOPA therapy, on the average): 2-5 years | bioavailability (Parkinsonian patients; in vivo): poor bioavailability | half-life in vivo (Parkinsonian patients; in vivo): short half-life in vivo
